Assay results reported in patent US11739101B2, “Bifunctional degraders of hematopoietic progenitor kinase and therapeutic uses thereof” (Nurix Therapeutics, Inc., priority 2020, dated 2023).

Each compound was assayed against T1, HPK1 (Homo sapiens, UniProt Q92918) (assay: HPK1 Cellular HiBiT Degradation Assay). Conditions: HiBiT-tagged HPK1 Jurkat cells, 24 hours, 10 uM to 0.1 nM; Dmax = 100 minus lowest % HPK1 remaining vs DMSO vehicle.
T1 construct: A HiBiT tag was introduced by CRISPR on the N terminus of HPK1 in Jurkat cells; host or cells: Jurkat (ATCC TIB-152), monoclonal CRISPR HiBiT knock-in line
T1 sequence (Q92918 whole entry): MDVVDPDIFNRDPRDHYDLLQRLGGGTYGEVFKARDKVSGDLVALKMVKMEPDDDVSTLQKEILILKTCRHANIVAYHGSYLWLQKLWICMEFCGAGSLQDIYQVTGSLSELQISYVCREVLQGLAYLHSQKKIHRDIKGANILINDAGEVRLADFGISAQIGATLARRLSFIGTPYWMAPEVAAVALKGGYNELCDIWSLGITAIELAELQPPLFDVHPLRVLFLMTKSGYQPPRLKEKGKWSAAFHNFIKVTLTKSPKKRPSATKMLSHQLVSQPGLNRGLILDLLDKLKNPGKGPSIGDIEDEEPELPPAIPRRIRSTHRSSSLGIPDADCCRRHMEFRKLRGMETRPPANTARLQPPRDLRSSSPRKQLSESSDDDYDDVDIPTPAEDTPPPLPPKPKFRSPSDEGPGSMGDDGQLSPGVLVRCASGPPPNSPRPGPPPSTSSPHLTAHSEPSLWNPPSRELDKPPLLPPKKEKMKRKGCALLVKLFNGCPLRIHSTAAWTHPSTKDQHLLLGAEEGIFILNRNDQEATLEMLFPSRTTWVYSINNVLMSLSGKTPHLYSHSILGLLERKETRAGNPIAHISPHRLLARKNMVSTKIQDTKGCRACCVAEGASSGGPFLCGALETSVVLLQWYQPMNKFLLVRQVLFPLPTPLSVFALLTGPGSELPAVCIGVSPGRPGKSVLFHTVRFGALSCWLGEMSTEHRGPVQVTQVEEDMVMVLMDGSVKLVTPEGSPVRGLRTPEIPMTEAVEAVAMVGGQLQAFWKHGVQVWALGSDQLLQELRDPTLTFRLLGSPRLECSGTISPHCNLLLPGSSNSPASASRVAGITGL
Format: cell-based
In short: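 Jurkat cells with CRISPR N-terminal HiBiT-tagged HPK1 were exposed to an 11-point 3.16-fold dilution series, 10 uM to 0.1 nM final, for 24 hours at 37° C./5% CO2. HPK1 was read by HiBiT lytic luminescence against DMSO as 100% and parental cells as background. Dmax is 100 minus the lowest % remaining from a four-parameter fit, with a parallel CellTiter-Glo viability check.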
`Cc1cc(F)c(Nc2nc(-c3ccc4c(c3)N([C@H]3C[C@@H](N5CCCCC5)C3)C(=O)C43CCN(C(=O)CCCCCCCNc4ccc5c(c4)C(=O)N(C4CCC(=O)NC4=O)C5=O)CC3)cc3ncn(C(C)C)c23)cc1C(=O)NC(C)C` (stereo partly drawn) [Example 3, 5-((6-(1′-(8-((2-(2,6-dioxopiperidin-3-yl)-1,3-dioxoisoindolin-5-yl)amino)octanoyl)-2-oxo-1-((1s,3s)-3-(piperidin-1-yl)cyclobutyl)spiro[indoline-3,4′-piperidin]-6-yl)-3-isopropyl-3H-imidazo[4,5-c]pyridin-4-yl)amino)-4-fluoro-N-isopropyl-2-methylbenzamide] was tested, and the Dmax was under 45%. `Cc1cc(F)c(Nc2nc(-c3ccc4c(c3)N([C@H]3C[C@@H](N5CCCCC5)C3)C(=O)C43CCN(C(=O)[C@H]4CC[C@H](C(=O)N5CCC(Nc6cccc7c6C(=O)N(C6CCC(=O)NC6=O)C7=O)CC5)CC4)CC3)cc3ncn(C(C)C)c23)cc1C(=O)NC(C)C` (stereo partly drawn) [Example 51, 4-fluoro-2-methyl-5-[(6-{2-oxo-1′-[(R,4R)-4-[4-({2-[2,6-dioxopiperidin-3-yl]-1,3-dioxo-2,3-dihydro-1H-isoindol-4-yl}amino)piperidine-1-carbonyl]cyclohexanecarbonyl]-1-[(1s,3s)-3-(piperidin-1-yl)cyclobutyl]-1,2-dihydrospiro[indole-3,4′-piperidin]-6-yl}-3-(propan-2-yl)-3H-imidazo[4,5-c]pyridin-4-yl)amino]-N-(propan-2-yl)benzamide] was tested, and the Dmax was 45 to 65%. `Cc1cc(F)c(Nc2nc(-c3ccc4c(c3)N([C@H]3C[C@@H](N5CCCCC5)C3)C(=O)C43CCN(C(=O)C4CCN(C(=O)N5CCC(Nc6cccc7c6C(=O)N(C6CCC(=O)NC6=O)C7=O)CC5)CC4)CC3)cc3ncn(C(C)C)c23)cc1C(=O)NC(C)C` (stereo partly drawn) [Example 68, 5-{[6-(1′-{1-[4-({2-[2,6-dioxopiperidin-3-yl]-1,3-dioxo-2,3-dihydro-1H-isoindol-4-yl}amino)piperidine-1-carbonyl]piperidine-4-carbonyl}-2-oxo-1-[(1s,3s)-3-(piperidin-1-yl)cyclobutyl]-1,2-dihydrospiro[indole-3,4′-piperidin]-6-yl)-3-(propan-2-yl)-3H-imidazo[4,5-c]pyridin-4-yl]amino}-4-fluoro-2-methyl-N-(propan-2-yl)benzamide] showed a Dmax of 45 to 65%. Compound `Cc1cc(F)c(Nc2nc(-c3ccc4c(c3)N([C@H]3C[C@@H](N5CCCCC5)C3)C(=O)C43CCN(C(=O)[C@@H]4CCN(C(=O)[C@H]5CC[C@H](Nc6cccc7c6C(=O)N(C6CCC(=O)NC6=O)C7=O)CC5)C4)CC3)cc3ncn(C(C)C)c23)cc1C(=O)NC(C)C` (stereo partly drawn) [Example 52, 4-fluoro-2-methyl-5-[(6-{2-oxo-1′-[(3R)-1-[(1R,4R)-4-({2-[2,6-dioxopiperidin-3-yl]-1,3-dioxo-2,3-dihydro-1H-isoindol-4-yl}amino)cyclohexanecarbonyl]pyrrolidine-3-carbonyl]-1-[(1s,3s)-3-(piperidin-1-yl)cyclobutyl]-1,2-dihydrospiro[indole-3,4′-piperidin]-6-yl}-3-(propan-2-yl)-3H-imidazo[4,5-c]pyridin-4-yl)amino]-N-(propan-2-yl)benzamide] has a Dmax of 45 to 65%. With `Cc1cc(F)c(Nc2nc(-c3ccc4c(c3)N([C@H]3C[C@@H](N5CCCCC5)C3)C(=O)C43CCN(C(=O)C4CCN(C(=O)[C@H]5CC[C@H](N(C)c6cccc7c6C(=O)N(C6CCC(=O)NC6=O)C7=O)CC5)CC4)CC3)cc3ncn(C(C)C)c23)cc1C(=O)NC(C)C` (stereo partly drawn) [Example 66, 4-fluoro-2-methyl-5-{[6-(2-oxo-1′-{1-[(1R,4R)-4-({2-[2,6-dioxopiperidin-3-yl]-1,3-dioxo-2,3-dihydro-1H-isoindol-4-yl}(methyl)amino)cyclohexanecarbonyl]piperidine-4-carbonyl}-1-[(1s,3s)-3-(piperidin-1-yl)cyclobutyl]-1,2-dihydrospiro[indole-3,4′-piperidin]-6-yl)-3-(propan-2-yl)-3H-imidazo[4,5-c]pyridin-4-yl]amino}-N-(propan-2-yl)benzamide] the Dmax was over 65%. In the case of `Cc1cc(F)c(Nc2nc(-c3ccc4c(c3)N([C@H]3C[C@@H](N5CCCCC5)C3)C(=O)C43CCN(C(=O)CN4CCC5(CC4)CC(C(=O)NCCNc4cccc6c4C(=O)N(C4CCC(=O)NC4=O)C6=O)C5)CC3)cc3ncn(C(C)C)c23)cc1C(=O)NC(C)C` (stereo partly drawn) [Example 46, N-(2-((2-(2,6-dioxopiperidin-3-yl)-1,3-dioxoisoindolin-4-yl)amino)ethyl)-7-(2-(6-(4-((2-fluoro-5-(isopropylcarbamoyl)-4-methylphenyl)amino)-3-isopropyl-3H-imidazo[4,5-c]pyridin-6-yl)-2-oxo-1-((1s,3s)-3-(piperidin-1-yl)cyclobutyl)spiro[indoline-3,4′-piperidin]-1′-yl)-2-oxoethyl)-7-azaspiro[3.5]nonane-2-carboxamide], the Dmax is reported as 45 to 65%. `Cc1cc(F)c(Nc2nc(-c3ccc4c(c3)N([C@H]3C[C@@H](N5CCCCC5)C3)C(=O)C43CCN(C(=O)[C@H]4CC[C@@H](C(=O)N5CCC(Oc6cccc7c6C(=O)N(C6CCC(=O)NC6=O)C7=O)CC5)CC4)CC3)cc3ncn(C(C)C)c23)cc1C(=O)NC(C)C` (stereo partly drawn) [Example 96, 4-fluoro-N-isopropyl-5-[(3-isopropyl-6-{2-oxo-1-[(1s,3s)-3-(piperidin-1-yl)cyclobutyl]-1′-[(1s,4s)-4-[4-({2-[(3S)-2,6-dioxopiperidin-3-yl]-1,3-dioxoisoindol-4-yl}oxy)piperidine-1-carbonyl]cyclohexanecarbonyl]spiro[indole-3,4′-piperidin]-6-yl}imidazo[4,5-c]pyridin-4-yl)amino]-2-methylbenzamide] gave a Dmax of 45 to 65%. `Cc1cc(F)c(Nc2nc(-c3ccc4c(c3)N([C@H]3C[C@@H](N5CCCCC5)C3)C(=O)C43CCN(C(=O)C4CCN(C(=O)CN5CC6(CCN(c7ccc8c(c7)C(=O)N(C7CCC(=O)NC7=O)C8=O)CC6)C5)CC4)CC3)cc3ncn(C(C)C)c23)cc1C(=O)NC(C)C` (stereo partly drawn) [Example 42, 5-{[6-(1′-{1-[2-(7-{2-[2,6-dioxopiperidin-3-yl]-1,3-dioxo-2,3-dihydro-1H-isoindol-5-yl}-2,7-diazaspiro[3.5]nonan-2-yl)acetyl]piperidine-4-carbonyl}-2-oxo-1-[(1s,3s)-3-(piperidin-1-yl)cyclobutyl]-1,2-dihydrospiro[indole-3,4′-piperidin]-6-yl)-3-(propan-2-yl)-3H-imidazo[4,5-c]pyridin-4-yl]amino}-4-fluoro-2-methyl-N-(propan-2-yl)benzamide] was tested, and the Dmax was 45 to 65%. `Cc1cc(F)c(Nc2nc(-c3ccc4c(c3)N([C@H]3C[C@@H](N5CCCCC5)C3)C(=O)C43CCN(C(=O)C4CCN(C(=O)C5CC(Nc6cccc7c6C(=O)N(C6CCC(=O)NC6=O)C7=O)C5)C4)CC3)cc3ncn(C(C)C)c23)cc1C(=O)NC(C)C` (stereo partly drawn) [Example 30, 4-fluoro-2-methyl-5-[(6-{2-oxo-1-[(1s,3s)-3-(piperidin-1-yl)cyclobutyl]-1′-[1-[(1s,3s)-3-({2-[2,6-dioxopiperidin-3-yl]-1,3-dioxo-2,3-dihydro-1H-isoindol-4-yl}amino)cyclobutanecarbonyl]pyrrolidine-3-carbonyl]-1,2-dihydrospiro[indole-3,4′-piperidin]-6-yl}-3-(propan-2-yl)-3H-imidazo[4,5-c]pyridin-4-yl)amino]-N-(propan-2-yl)benzamide] showed a Dmax of under 45%.
